Measurements from ChEMBL document CHEMBL2429773, “Synthesis and antiseizure evaluation of isoindoline-1,3-dione derivatives in mice” (Med Chem Res, 2013).

Legend:
Mus musculus [1] = assay: Anticonvulsant activity against maximal electroshock-induced seizures in albino mouse assessed as seizure at 30 mg/kg, ip after 0.5 hr; type: functional; settings: route intraperitoneal
Mus musculus [2] = assay: Anticonvulsant activity against subcutaneous pentylenetetrazole-induced seizures in albino mouse assessed as duration of seizure time at 100 mg/kg, ip after 0.5 hr; type: functional; settings: route intraperitoneal
Mus musculus [3] = assay: Anticonvulsant activity in albino mouse assessed as protection against subcutaneous pentylenetetrazole-induced death measured as mortality at 30 mg/kg, ip after 0.5 hr; type: functional; settings: sc
Mus musculus [4] = assay: Anticonvulsant activity in ip dosed albino mouse assessed as protection against maximal electroshock-induced seizures after 0.5 hr; type: functional
Mus musculus [5] = assay: Anticonvulsant activity against subcutaneous pentylenetetrazole-induced seizures in albino mouse assessed as onset of seizure time at 30 mg/kg, ip after 0.5 hr; type: functional; settings: route intraperitoneal
Mus musculus [6] = assay: Anticonvulsant activity against subcutaneous pentylenetetrazole-induced seizures in albino mouse assessed as onset of seizure time at 100 mg/kg, ip after 0.5 hr; type: functional; settings: route intraperitoneal
Mus musculus [7] = assay: Anticonvulsant activity in albino mouse assessed as protection against subcutaneous pentylenetetrazole-induced death measured as mortality at 100 mg/kg, ip after 0.5 hr; type: functional; settings: sc, route intraperitoneal
Mus musculus [8] = assay: Anticonvulsant activity against subcutaneous pentylenetetrazole-induced seizures in albino mouse assessed as seizure at 100 mg/kg, ip after 0.5 hr; type: functional
Mus musculus [9] = assay: Anticonvulsant activity against maximal electroshock-induced seizure in albino mouse assessed as seizures at 300 mg/kg, ip after 0.5 hr; type: functional; settings: route intraperitoneal
Mus musculus [10] = assay: Anticonvulsant activity against subcutaneous pentylenetetrazole-induced seizures in albino mouse assessed as onset of seizure time at 300 mg/kg, ip after 0.5 hr; type: functional; settings: route intraperitoneal
Mus musculus [11] = assay: Anticonvulsant activity against subcutaneous pentylenetetrazole-induced seizures in albino mouse assessed as duration of seizure time at 30 mg/kg, ip after 0.5 hr; type: functional; settings: route intraperitoneal
Mus musculus [12] = assay: Anticonvulsant activity in albino mouse assessed as protection against subcutaneous pentylenetetrazole-induced death measured as mortality at 300 mg/kg, ip after 0.5 hr; type: functional; settings: sc, route intraperitoneal
Mus musculus [13] = assay: Anticonvulsant activity against subcutaneous pentylenetetrazole-induced seizures in albino mouse assessed as duration of seizure time at 300 mg/kg, ip after 0.5 hr; type: functional; settings: route intraperitoneal
Mus musculus [14] = assay: Anticonvulsant activity against maximal electroshock-induced seizures in albino mouse assessed as seizure at 100 mg/kg, ip after 0.5 hr; type: functional; settings: route intraperitoneal
[15] = Neurotoxicity in ip dosed albino mouse measured after 30 mins by rotarod method; type: toxicity, organism-based; settings: in vivo
Mus musculus [16] = assay: Protective index, ratio of TD50 for neurotoxicity in ip dosed albino mouse to ED50 for anticonvulsant activity in ip dosed albino mouse; type: functional

| SMILES | Activity (Mus musculus [1]) [%] | Time (Mus musculus [2]) [min] | mortality at 30 mg/kg (Mus musculus [3]; route intraperitoneal) [%] | ED50 (Mus musculus [4]) [mg/kg] | Time (Mus musculus [5]) [min] | Time (Mus musculus [6]) [min] | mortality at 100 mg/kg (Mus musculus [7]) [%] | Activity (Mus musculus [8]; route intraperitoneal) [%] | Activity (Mus musculus [9]) [%] | Time (Mus musculus [10]) [min] | Time (Mus musculus [11]) [min] | mortality at 300 mg/kg (Mus musculus [12]) [%] | Time (Mus musculus [13]) [min] | Activity (Mus musculus [14]) [%] | TD50 at 0.5 h [15] [mg/kg] | Ratio TD50/ED50 (Mus musculus [16]) | mortality at 30 mg/kg (Mus musculus [3]) [%] | Activity (Mus musculus [8]; ROUTE) [%] |
| --- | --- | --- | --- | --- | --- | --- | --- | --- | --- | --- | --- | --- | --- | --- | --- | --- | --- | --- |
| COc1cccc(N2C(=O)c3ccccc3C2=O)c1 | 100 | 18.75 | 100 | > 300 | 3 | 7.25 | 75 | 100 | 75 | 10.25 | 7.25 | 25 | 22.25 | 100 | – | – | – | – |
| O=C1c2ccccc2C(=O)N1c1ccc(Cl)cc1 | 75 | 12.75 | 100 | 55 | 3 | 3.25 | 75 | 100 | 25 | 8.25 | 10.5 | 75 | 19.25 | 25 | > 300 | >5.54 | – | – |
| O=C1c2ccccc2C(=O)N1c1cccc(Cl)c1 | 100 | 7 | 100 | 190 | 3.5 | 3.75 | 75 | 100 | 25 | 4.75 | 11.25 | 25 | 9 | 100 | 300 | 1.57 | – | – |
| COc1ccc(N2C(=O)c3ccccc3C2=O)cc1 | 25 | 22.25 | 100 | 15.1 | 3 | 5.25 | 100 | 100 | 0 | 13.5 | 11.75 | 0 | 23.75 | 25 | 89.3 | 5.91 | – | – |
| O=C1c2ccccc2C(=O)N1c1ccccc1Cl | 100 | 14.25 | 100 | 168 | 1.5 | 6.5 | 75 | 100 | 25 | 9.5 | 8.25 | 100 | 24.5 | 75 | – | – | – | – |
| O=C1c2ccccc2C(=O)N1c1ccccc1F | 100 | 9 | 100 | > 300 | 2 | 5 | 100 | 100 | 0 | 4.75 | 5.5 | 75 | 12 | 75 | 233 | <0.77 | – | – |
| O=C1c2ccccc2C(=O)N1c1cccc(F)c1 | 100 | 11 | 100 | 39.7 | 5 | 4 | 100 | 100 | 25 | 4.75 | 10.5 | 75 | 14 | 0 | 31.7 | 0.79 | – | – |
| O=C1c2ccccc2C(=O)N1c1ccc(F)cc1 | 100 | 23.75 | 25 | > 300 | 3 | 8.5 | 25 | 100 | 75 | 15.25 | 13.25 | 0 | 23.5 | 100 | 182 | <0.6 | – | – |
| O=C1c2ccccc2C(=O)N1c1cccc([N+](=O)[O-])c1 | 100 | 16.5 | 100 | 174 | 3.5 | 4.5 | 100 | 100 | 25 | 10.5 | 6 | 75 | 18.25 | 75 | 74.2 | 0.42 | – | – |
| O=C1c2ccccc2C(=O)N1c1ccc([N+](=O)[O-])cc1 | 100 | 11.75 | 75 | 62.3 | 3.5 | 4 | 75 | 100 | 25 | 6.25 | 5.75 | 75 | 15.5 | 25 | 176 | 2.81 | – | – |
| COc1ccccc1N1C(=O)c2ccccc2C1=O | 100 | 9.75 | 100 | 195 | 2.75 | 5.75 | 100 | 100 | 25 | 7.25 | 9.75 | 75 | 13.5 | 100 | 222 | 1.14 | – | – |
| O=C1c2ccccc2C(=O)N1c1ccccc1[N+](=O)[O-] | 75 | 22.5 | 100 | 53.5 | 2 | 7.5 | 0 | 100 | 0 | 8.75 | 7 | 75 | 18 | 25 | > 300 | >5.6 | – | – |
| CN1C(=O)CN=C(c2ccccc2)c2cc(Cl)ccc21 [DIAZEPAM] | – | – | – | 1.8 | – | – | – | – | – | – | – | – | – | – | – | – | 0 | 0 |
| O=C1c2ccccc2C(=O)N1c1ccccc1 [N-PHENYL-PHTHALIMIDE] | 100 | 11 | 100 | 66.2 | 3.25 | 4.5 | 100 | 100 | 0 | 6 | 3.75 | 25 | 15.75 | 25 | > 300 | >4.53 | – | – |
